Values quoted from earlier work, collected in patent US20050009744A1, “Treatment of congestive heart failure” (priority 2001, published 2005).

Details: Lysko et al, J Cardiovasc Pharmacol 2000

SMILES: COc1ccccc1OCCNCC(O)COc1cccc2[nH]c3ccccc3c12 (stereo not shown) [Carvedilol, carvedilol]
- antioxidant activity: far greater antioxidant activity than e.g. metoprolol
